According to US20210227825A1, “SAFENER” (Nippon Soda Co., Ltd., priority 2018, published 2021):

System: rice seedling (variety: Koshihikari)
Experiment: Rice hydroponics test tube test, number of new roots after 5 days (Example 5, Comparative Examples 1 and 2)
Format: in vivo
Details: for safener effect on inhibition of new root development by pyrazosulfuron-ethyl: 0.01 mg pyrazosulfuron-ethyl in 1 L hydroponics solution; for Condition of new roots in test tube of safener composition: 0.01 mg pyrazosulfuron-ethyl plus the safener (0.1 ml safener (A) or 0.01 mg comparative) in 1 L hydroponics solution
Procedure: One rice seedling (variety: Koshihikari) in the two-leaf stage was transplanted into the test tube. This was placed in an artificial meteorological instrument set to 16 hours (25° C.) in the light period and 8 hours (20° C.) in the dark period. After a lapse of 5 days, the number of new roots was counted. This test was performed a total of 6 times. An average value was calculated from the measured values for 6 times.
A comparative safener composition (1) was obtained by the same method as that for the safener composition (2), with the exception that 0.1 ml of the safener (A) of Example 5 was replaced with a solution obtained by dissolving 0.01 mg of α-naphthylacetamide in 10 μl of DMSO.
A comparative safener composition (2) was obtained by the same method as that for the safener composition (2), with the exception that 0.1 ml of the safener (A) of Example 5 was replaced with a solution obtained by dissolving 0.01 mg of indole butyric acid in 10 μl of DMSO.

| Compound | safener effect on inhibition of new root development by pyrazosulfuron-ethyl | Condition of new roots in test tube of safener composition |
| --- | --- | --- |
| NC(=O)Cc1cccc2ccccc12 [α-Naphthylacetamide, α-naphthylacetamide] | no safener effect | 3.3 roots |
| indole butyric acid | no safener effect | 5.0 roots |
